Source: patent US6465527B1, “Iodinated hydrocarbon pesticide” (priority 1999, dated 2002)
Like-named read-outs stand apart in the source and are kept apart here.

What was measured:
'Brim' soybean = assay: Soybean growth and root condition in treated soil (Experiment 5); format: in vivo; conditions: rates 100-400 mg/kg
Experimental: (§1) In this experiment, the nematotoxic properties of ethylene diiodide were compared to that of methyl iodide. The nematicidal efficacies of iodomethane [IM] and ethylene diiodide [EDI] were compared in a greenhouse experiment using field soil infested with Meloidogyne arenaria, Pratylenchus brachyurus, and Paratrichodorus christiei.
(§2) Each compound was added to soil at rates of 100, 200, 300 and 400 mg s/kg of soil. The soil was potted and kept moist for two weeks when it was planted with ‘Brim’ soybean after taking samples for nematological analyses. After eight weeks of growth, the plants were removed from the pots and soil samples taken. Data was collected on weights of fresh roots and shoots, general appearance of roots [root condition index] and root gall formation by M. arenaria. All EDI rates eliminated M. arenaria juveniles [J2] and populations of the other nematodes in the preplant samples; IM reduced J2 numbers by 50-70%, eliminated P. christiei with the 400 mg rate, but had no effect on P. brachyurus. […] The general appearance of roots was improved by EDI at rates ≦300 mg, but MI had no effect on the variable. […] M. arenaria J2 populations in roots were reduced by 60-70% by MI treatments, but the compound had no effect on root populations of P. brachyurus. MI had no effect on J2 populations in the final soil samples, although it suppressed P. christiei, by 50-70%.

[1] = system: American cockroach, Periplaneta americana (L.); assay: Fumigant toxicity in sealed glass jar, American cockroach; format: in vivo; conditions: Periplaneta americana, inhaled or nasal, 8-36 adult males
Experimental: (§3) As shown below, Table 1 depicts the toxicity of both monoiodinated and diiodinated hydrocarbons to both the German and the American cockroach after 1 hour of exposure.
(§4) Shown in Table 2 is the toxicity of both monoiodinated and diiodinated hydrocarbons to the German and American cockroach and the Cowpea weevil after 24 hours of exposure.
(§5) In this experiment both the insecticidal and nematicidal properties of iodinated hydrocarbons were compared. In determining the insecticidal properties of the iodinated hydrocarbons, both American (Periplaneta americana) and German (Blattella germanica) cockroaches were used. Groups of cockroaches were confined in 0.95-liter glass jars with a small cotton ball. Exactly 50 μl of a test chemical was applied to the cotton ball and the jar was sealed. Knockdown, defined as the inability to walk in a coordinated manner, and mortality were assessed every 15 minutes for the first hour and hourly thereafter for 8 hours and again after 24 hours.

[2] = system: German cockroach, Blattella germanica (L.); assay: Fumigant toxicity in sealed glass jar, German cockroach; format: in vivo; conditions: Blattella germanica, inhaled or nasal, 30-60 adult males
Experimental: as §3, §4, §5

[3] = system: root-knot [Meloidogyne arenaria]; assay: Greenhouse nematicide test, iodinated C1-C3 hydrocarbons (Experiment 4); format: in vivo
Experimental: (§6) In this experiment, the nematicidal properties of low molecular weight iodinated hydrocarbons were investigated. The nematicidal properties of iodinated C1-C3 hydrocarbons were evaluated in greenhouse experiments with field soil infested with root-knot [Meloidogyne arenaria] and cyst [Heterodera glycines] nematodes. lodomethane, di-iodomethane, iodoethane, di-iodoethane, and 1-iodopropane were added to soil at rates of 0.1, 0.2 and 0.4 ml/kg soil.
(§7) The treated soil was kept moist for 10 days when soil samples were taken for nematode analysis and ‘Brim’ soybean [Glycine max] planted. Soybeans were allowed to grow for 8 weeks and then were removed from the soil to determine plant growth, root-knot indices and the number of galls generated by M arenaria. […] All compounds except 1-iodopropane increased fresh shoot weight when applied at ≧0.1 ml/kg soil.

[4] = system: cyst [Heterodera glycines]; assay: as above; format: in vivo
Experimental: as §6, §7

[5] = system: reniform nematode [Rotylenchulus reniformis]; assay: Greenhouse nematicide test in cotton field soil, covered and uncovered pots (Experiment 6, FIGS. 1-4); format: in vivo; conditions: for Control of the nematode in soil: covered and uncovered, all rates up to 12 mg per kg of soil
Source text: FIGS. 2 and 3 illustrate the effectiveness of the diiodoethane and diiodopropane in eliminating the nematode (Rotylenchulus reniformis) from a soil sample. The “x” axis on the top row illustrates the quantity of iodinated hydrocarbon in milligrams per kilogram of soil. The next two rows below the “x” axis indicate the number of nematodes per 100 milliliters of soil, which is also indicated on the “y” axis. In FIG. 2, 1,2-diiodoethane was applied to the soil both in a covered state and an uncovered state. […] This is believed to be so because of the volatility of 1,2 diiodoethane, wherein the cover slows down the rate at which the compound evaporates into the atmosphere.
In this experiment, the pesticidal and herbicidal properties of volatile, low molecular weight, iodinated hydrocarbons were investigated. The relative nematicidal efficacy of iodomethane [C1], 1,2-diiodoethane [C2], 1,3-diiodopropane [C3] and 1,4-diiodobutane [C4] was studied in greenhouse experiments with soil from a cotton field infested with the reniform nematode [Rotylenchulus reniformis]. The chemicals were obtained from Aldrich, Milwaukee, U.S.A. Emulsifiable concentrates of the compounds were prepared by dilution in acetone containing an emulsogen.
(§8) For each chemical, an aqueous emulsion with 0.2% [w/w] of the compound was prepared and was applied to soil at rates of 2, 4, 6, 8, 10, and 12 mgs a.i./Kg soil. The treated soil was mixed and transferred to 1L capacity 10-cm diameter cylindrical pots. Pots with untreated soil [control] and with treated soil were placed on a greenhouse bench in a randomized complete block design. Each treatment was represented by 14 replications [pots], one half of which were left uncovered, and the other 7 were covered with polyethylene plastic bags [approx. 1 mil thickness] retained with a rubber around the pots. Soil samples for nematological analysis [salad bowl incubation technique] were collected 7-10 days after application of the materials. […] In covered pots, applications of the material were particularly effective resulting in 100% kill with the 10 and 12 mg rates. All dosages of C3 and C4 eliminated the nematode in covered pots. […] In a greenhouse experiment of similar design to the nematicide experiments, the C3 and C4 emulsions were applied at rates of 2-20 mgs a.i./Kg soil to a soil infested with crabgrass [Digitaria sanguinalis], purple nutsedge [Cyperus rotundus], Jimson weed [Datura stramonium] and a variety of other weed species. All pots were covered, and the number of weeds were counted 7, 14 and 30 days after application of the chemicals.

[6] = system: Paratrichodorus christiei; assay: Greenhouse nematicide test, iodomethane vs ethylene diiodide (Experiment 5); format: in vivo
Experimental: as §1, §2

Meloidogyne arenaria [7] = assay: as above; format: in vivo
Experimental: as §1, §2

Pratylenchus brachyurus = assay: as above; format: in vivo
Experimental: as §1, §2

[8] = system: Cowpea weevil, Callosobruchus maculatus (F.); assay: Fumigant toxicity, Cowpea weevil; format: in vivo; parameters: concentration or dose not given beside the values; conditions: 30 adults
Experimental: as §4

[9] = system: American (Periplaneta americana) and German (Blattella germanica) cockroaches; assay: Knockdown and mortality of cockroaches in sealed jar (both species); format: in vivo; conditions: 50 μl on cotton ball in sealed 0.95-liter jar; for Knockdown of cockroaches: within 1 hour after treatment
Experimental: In this experiment both the insecticidal and nematicidal properties of iodinated hydrocarbons were compared. In determining the insecticidal properties of the iodinated hydrocarbons, both American (Periplaneta americana) and German (Blattella germanica) cockroaches were used. Groups of cockroaches were confined in 0.95-liter glass jars with a small cotton ball. Exactly 50 μl of a test chemical was applied to the cotton ball and the jar was sealed.

[10] = system: German cockroach, Blattella germanica (L.); assay: Fumigant toxicity in sealed glass jar, German cockroach; conditions: in vivo
[11] = system: crabgrass [Digitaria sanguinalis], purple nutsedge [Cyperus rotundus], Jimson weed [Datura stramonium] and a variety of other weed species; assay: Greenhouse herbicide test in weed-infested potted soil (Experiment 6, FIG. 6); format: in vivo; conditions: up to 20 mg per kg of soil; one week
Experimental: Illustrated in FIGS. 6 and 7 are the herbicidal properties of the present invention. In FIG. 6, 1,3-diiodopropane and 1,4-diiodobutane were added to a soil sample contained in a pot, wherein the number of weeds were counted at the end of a one week period. The top row of the “x” axis plots the amount in milligrams of iodinated hydrocarbon added per kilogram of soil. The two rows below the top row depict the number of weeds found after a week, which is also plotted on the “y” axis. […] It is inferred that greater dosages would eliminate an even greater number of weeds. FIG. 7 depicts similar results except that the weed controlled was only one variety: crabgrass. […] It is also inferred that dosages larger than 20 mg of iodinated hydrocarbons would further eliminate an even greater number of crabgrass plants.
as §8

Heterodera glycines = assay: Greenhouse nematicide test, diiodinated C2-C8 hydrocarbons in infested field soil (Experiments 1 and 2); format: in vivo; conditions: rates ≧5.0 mg
Experimental: (§9) Additionally, the nematicidal properties of iodinated hydrocarbons were investigated in greenhouse experiments with field soil infested with Meloidogyne arenaria and Heterodera Glycines. Chemicals were added directly to infested solid at rates <100 mg/Kg soil. Treated soil was kept moist (approximately 60 percent field capacity) and uncovered for 7-10 days when samples were collected, and the pots were planted with ‘Brim’ soybean, Glycine max. […] 1,2-diiodoethane (C2), 1,3-diiodopropane (C3), 1,4-diiodobutane (C4), 1,5-diiodopentane (C5), 1,6-diiodohexane (C6), and […] were applied to soil rates of 2.5, 5.0, 7.5, and 10 mg/Kg soil. All rates of C2 and C8 were ineffective in reducing M. arenaria juvenile (J2) populations in preplant samples. This was also true for C2 and J2 populations of H. glycines; however, […] rates ≧5.0 mg suppressed J2 populations of H. glycines. […] H. glycines J2 numbers in final soil samples were generally inversely related to rates for C3-C8. […] Applications of C3-C6 to soil increased shoot weights in a manner directly related to dosages but only in a curvilinear pattern.
(§10) In this experiment, the nematicidal properties of various diiodinated hydrocarbons were compared. The nematicidal properties of diiodinated C2-C8 normal hydrocarbons was assessed in a greenhouse experiment with field soil infested with Meloidogyne arenaria [Ma] and Heterodera glycines [Hg]. 1,2-diiodoethane [C2], 1,3-diiodopropane [C3], 1,4-diiodobutane [C4], 1.5-diiodopentane [C5], 1,6-diiodohexane [C6] and 1,8-diiodooctane [C8] were applied to soil at rates of 2.5, 5.0, 7.5, and 10.0 mgs/kg soil. The potted soil was kept moist in a greenhouse for 10 days when preplant samples were collected for analysis, and the pots were planted with ‘Brim’ soybean [Glycine max]. After 7 weeks of growth, the plants were removed and final soil samples taken. Data was collected on weights of fresh roots and shoots, root galling by Ma, and numbers of nematodes in soil and roots. All rates of C2 and C8 were ineffective in reducing Ma juvenile [J2] populations in the preplant samples. This was also true for C2 and J2 populations of Hg; however, C8 rates ≧5.0 mg suppressed J2 populations of Hg. […] Hg J2 numbers in final soil samples were generally inversely related to rates for C3-C8. This pattern of suppression in J2 numbers was also applicable to Ma in the final soil samples but only for C3-C6. […] Applications of C3-C6 to soil increased shoot weights in a manner directly related to dosages but non-linear in pattern.

Meloidogyne arenaria [12] = assay: as above; format: in vivo; conditions: rates ≧5.0 mg
Experimental: as §9, §10

[13] = 1 h exposure, read-out: % Mortality after 1 h exposure, American cockroach
[14] = 24 h exposure, read-out: % Mortality after 24 h exposure, American cockroach
[15] = 1 h exposure, read-out: % Mortality after 1 h exposure, German cockroach
[16] = 24 h exposure, read-out: % Mortality after 24 h exposure, German cockroach

CI [iodomethane, reference compound]
General appearance of roots [root condition index] ('Brim' soybean): no effect
mortality at 50 µL/jar [1, 13]: 100%
mortality at 50 µL/jar [1, 14]: 100%
mortality at 50 µL/jar [2, 15]: 100%
mortality at 50 µL/jar [2, 16]: 100%
Root-knot nematode juveniles in soil ([3]; 0.4 ml rate): eliminated
Gall formation by M. arenaria ([3]; applied at ≧0.2 ml/kg soil): Significant suppression
Root-knot nematode juveniles in soil ([3]; rates lower than 0.4 ml): ineffective
H. glycines J2 populations in soil ([4]; 0.4 ml rate): reduced
H. glycines J2 populations in soil ([4]; rates lower than 0.4 ml): ineffective
Control of the nematode in soil ([5]; listed as C1): failed to control
Control of the nematode in soil ([5]; listed as methyl iodide): ineffective
P. christiei populations in preplant samples ([6]; 400 mg rate): eliminated
Suppression of P. christiei in final soil samples ([6]; final soil samples): 50-70%
Reduction of M. arenaria J2 populations in roots (Meloidogyne arenaria [7]; after eight weeks of growth): 60-70%
J2 populations in the final soil samples (Meloidogyne arenaria [7]; final soil samples): no effect
Reduction of M. arenaria J2 numbers in preplant samples (Meloidogyne arenaria [7]; rates 100-400 mg/kg of soil): 50-70%
Galls in roots of plants from treated soil (M. arenaria) (Meloidogyne arenaria [7]; soybean after eight weeks): significant numbers
Root populations of P. brachyurus (Pratylenchus brachyurus; after eight weeks of growth): no effect
P. brachyurus populations in preplant samples (Pratylenchus brachyurus; rates 100-400 mg/kg of soil): no effect
% Mortality after 24 h exposure, Cowpea weevil [8]: 100%
Knockdown of cockroaches [9]: 100%

ICI [diiodomethane]
mortality at 50 µL/jar [1, 13]: 39%
mortality at 50 µL/jar [1, 14]: 100%
mortality at 50 µL/jar [2, 15]: 40%
mortality at 50 µL/jar [2, 16]: 100%
H. glycines J2 populations in soil ([4]; 10 days after application, all dosages (0.1, 0.2, 0.4 ml/kg soil)): eliminated
Repellency to German cockroaches [10]: repellent
% Mortality after 24 h exposure, Cowpea weevil [8]: 100%
Time to 100 percent mortality of cockroaches [9]: ≤ 4 h
Knockdown of cockroaches [9]: ≈ 40%

ICCCCI [1,4-diiodobutane]
Number of weeds found in the pots as the dosage is increased (FIG. 6) [11]: steady decline
mortality at 50 µL/jar [1, 13]: 0%
mortality at 50 µL/jar [1, 14]: 33%
mortality at 50 µL/jar [2, 15]: 0%
mortality at 50 µL/jar [2, 16]: 70%
Repellency to German cockroaches [10]: repellent
Nematode in soil, covered pots ([5]; covered pots, all dosages (2-12 mgs a.i./Kg soil)): eliminated
Dose that eliminates the nematodes ([5]; uncovered and covered state): about 10 mg per kg of soil
Mortality of the nematode ([5]; uncovered pots, 3 highest rates): 100%
H. glycines J2 populations in preplant samples (Heterodera glycines): virtually eliminated
M. arenaria J2 populations in preplant samples (Meloidogyne arenaria [12]): virtually eliminated
% Mortality after 24 h exposure, Cowpea weevil [8]: 47%
